The test system of experiment [1] is 5HT2A sensor. Nature of the experiment: 5HT2A sensor assay, agonist mode (sLight1.3s HEK293T stable line). Format: cell-based. As to conditions: for activation of 5HT2A sensor assay in agonist mode at 10 μM: 10 μM of compound (FIG. 11). The procedure:
In some embodiments, hallucinogenic potential of a compound of the present invention is determined in vitro. In some embodiments, hallucinogenic potential of a compound of the present invention is determined using a 5HT2A sensor assay. In some embodiments, the 5HT2A sensor assay is in an agonist mode or an antagonist mode. In some embodiments, the 5HT2A sensor assay is in an agonist mode.
(§1) 5HT2A Sensor Assays. HEK293T (ATCC) 5HT2A sensor stable line (sLight1.3s) was generated via lentiviral transduction of HIV-EF1α-sLight1.3 and propagated from a single colony. Lentivirus was produced using 2nd generation lentiviral plasmids pHIV-EF1α-sLight1.3, pHCMV-G, and pCMV-deltaR8.2.
(§2) For the screening of the 41 compounds, sLight1.3s cells were plated in 96-well plates at a density of 40000 24-hours prior to imaging. On the day of imaging, compounds solubilized in DMSO were diluted from the 100 mM stock solution to working concentrations of 1 mM, 100 μM and 1 μM with a DMSO concentration of 1%. Immediately prior to imaging, cells growing in DMEM (Gibco) were washed 2× with HBSS (Gibco) and in agonist mode 180 μL of HBSS or in antagonist mode 160 μL of HBSS was added to each well after the final wash. For agonist mode, images were taken before and after the addition of the 20 μL compound working solution into the wells containing 180 μL HBSS. This produced final compound concentrations of 100 μM, 10 μM and 100 nM with a DMSO concentration of 0.1%. For antagonist mode, images were taken before and after addition of 20 μL of 900 nM 5-HT and again after 20 μL of the compound working solutions to produce final concentrations of 100 nM for 5HT and 100 μM, 10 μM and 100 nM for the compounds with a DMSO concentration of 0.1%. Each compound was tested in triplicates (3 wells) for each concentration (100 μM, 10 μM and 100 nM). Additionally, within each plate, 100 nM 5HT and 0.1% DMSO controls were also imaged.
(§3) Imaging was performed using the Leica DMi8 inverted microscope with a 40× objective using the FITC preset with an excitation of 460 nm and emission of 512-542 nm. For each well, the cellular membrane where the 5HT2A sensor is targeted was autofocused using the adaptive focus controls and 5 images from different regions within the well were taken with each image processed from a 2×2 binning.
(§4) For data processing, the membranes from each image was segmented and analyzed using a custom algorithm written in MATLAB producing a single raw fluorescence intensity value. For each well the 5 raw fluorescence intensity values generated from the 5 images were averaged and the change in fluorescence intensity (dFF) was calculated as: dFF=(Fsat−Fapo)/Fapo
(§5) For both agonist and antagonist modes, the fluorescence intensity values before compound addition in HBSS only were used as the Fapo values while the fluorescence intensity values after compound addition were used as the Fsat values.
(§6) For agonist mode, data are as percent activation relative to 5HT, where 0 is the average of the DMSO wells and 100 is the average of the 100 uM 5HT wells. For antagonist mode, the inactivation score was calculated as: Inactivation score=(dFFF(Compound+5HT)−dFF(5HT))/dFF(5HT)

The test system of experiment [2] is 5HT2A sensor. Nature of the experiment: 5HT2A sensor assay, antagonist mode (sLight1.3s HEK293T stable line). The class given is cell-based. As to conditions: 10 μM of compound (FIG. 13). The protocol: In some embodiments, the 5HT2A sensor assay is in an antagonist mode.
as §1, §2, §3, §4, §5, §6

A further experiment concerns cortical neurons. The experiment is described as follows: Dendritogenesis assay, Sholl analysis. The conditions noted are these: 10 μM; for Emax at 10 µM: Rattus norvegicus, Cortical neurone, Nmax with vehicle (DMSO) = 0% and ketamine = 100%, read-out: % efficacy in sholls; for dendritic arbor complexity / neuronal growth (Nmax of Sholl plots): cortical neurons. Format: cell-based, rat. From the text: Dendritogenesis Assays. Phenotypic screening has historically proven more successful than target-based approaches for identifying drugs with novel mechanisms of action. Having established a simple and robust method for accessing isoDMT analogs, tested next was their ability to increase dendritic arbor complexity in cultures of cortical neurons using a phenotypic assay. Following treatment, neurons were fixed and visualized using an antibody against MAP2—a cytoskeletal protein localized to the somatodendritic compartment of neurons. Sholl analysis was then performed, and the maximum number of crossings (Nmax) was used as a quantitative metric of dendritic arbor complexity. For statistical comparisons between specific compounds, the raw Nmax values were compared. Percent efficacies were determined by setting the Nmax values for the vehicle (DMSO) and positive (ketamine) controls equal to 0% and 100%, respectively.
Animals. For the dendritogenesis experiments, timed pregnant Sprague Dawley rats were obtained from Charles River Laboratories (Wilmington, Mass.). For the head-twitch response assay, male and female C57BL/6J mice were obtained from Jackson Laboratory (Sacramento, Calif.). Mice were housed in a temperature and humidity-controlled room maintained on a 12-h light/dark cycle in groups of 4-5 (same sex). Animals weighed between 17 and 30 g at the time of the experiments. All experimental procedures involving rodents were approved by the UC Davis Institutional Animal Care and Use Committee (IACUC) and adhered to principles described in the National Institutes of Health Guide for the Care and Use of Laboratory Animals. The University of California, Davis and the University of California, San Francisco are accredited by the Association for Assessment and Accreditation of Laboratory Animal Care International (AAALAC).
Dendritogenesis—Sholl Analysis. Dendritogenesis experiments were performed following a previously published method with slight modifications. Neurons were plated in 96-well format (200 μL of media per well) at a density of approximately 15,000 cells/well in Neurobasal (Life Technologies) containing 1% penicillin-streptomycin, 10% heat-inactivated fetal bovine serum, and 0.5 mM glutamine. After 24 h, the medium was replaced with Neurobasal containing 1× B27 supplement (Life Technologies), 1% penicillin-streptomycin, 0.5 mM glutamine, and 12.5 μM glutamate. After 3 days in vitro (DIV3), the cells were treated with compounds. All compounds tested in the dendritogenesis assays were treated at 10 μM unless noted otherwise. Stock solutions of the compounds in DMSO were first diluted 100-fold in Neurobasal before an additional 10-fold dilution into each well (total dilution=1:1000; 0.1% DMSO concentration). Treatments were randomized. After 1 h, the media was removed and replaced with new Neurobasal media containing 1× B27 supplement, 1% penicillin-streptomycin, 0.5 mM glutamine, and 12.5 μM glutamate. The cells were allowed to grow for an additional 71 h. At that time, neurons were fixed by removing 80% of the media and replacing it with a volume of 4% aqueous paraformaldehyde (Alfa Aesar) equal to 50% of the working volume of the well. Then, the cells were incubated at room temperature for 20 min before the fixative was aspirated and each well washed twice with DPBS. Cells were permeabilized using 0.2% Triton X-100 (ThermoFisher) in DPBS for 20 minutes at room temperature without shaking. Plates were blocked with antibody diluting buffer (ADB) containing 2% bovine serum albumin (BSA) in DPBS for 1 h at room temperature. Then, plates were incubated overnight at 4° C. with gentle shaking in ADB containing a chicken anti-MAP2 antibody (1:10,000; EnCor, CPCA-MAP2). The next day, plates were washed three times with DPBS and once with 2% ADB in DPBS. […]

“Also recorded” adds a separate entry of the source.

Consider `CCN(CC)C(=O)[C@@H]1C=C2c3cccc4[nH]c(Br)c(c34)C[C@H]2N(C)C1` [BOL148, reference compound], for which the “activation of 5HT2A sensor assay in agonist mode at 10 μM” value (“activation … at 10 μM” below) in the experiment on 5HT2A sensor [1] is reported as “do not activate the 5HT2A sensor assay in agonist mode”. Also, in the experiment with 5HT2A sensor [2], the “competition with 5HT binding to 5HT2A, antagonist mode sensor assay at 10 μM” value (“competition with 5HT binding to 5HT2A” for short) was “compete with 5HT binding to 5HT2A”.
For `COc1cc(CC(C)N)c(OC)cc1I` (centres unmarked) [DOI, reference compound], in the experiment with 5HT2A sensor [1], the “activation … at 10 μM” value was “activate the 5HT2A sensor assay in agonist mode”.
As for `CCN(CC)CCc1c[nH]c2cc(F)ccc12` [Example 6-F-DET, reference compound], in the experiment with 5HT2A sensor [1], the “activation … at 10 μM” value was “do not activate the 5HT2A sensor assay in agonist mode”. Also, the “competition with 5HT binding to 5HT2A” value in the experiment on 5HT2A sensor [2] is given as “compete with 5HT binding to 5HT2A”.
Take `CN(C)CCn1ccc2c(OCc3ccccc3)cccc21` [Example 8, 2-(4-(benzyloxy)-1H-indol-1-yl)-N,N-dimethylethan-1-amine]: the Emax at 10 µM in the experiment with cortical neurons stood at 38%.
Take `CN(C)CCn1ccc2cc(OCc3ccccc3)ccc21` [Example 9, 2-(5-(benzyloxy)-1H-indol-1-yl)-N,N-dimethylethan-1-amine]: the Emax at 10 µM in the experiment with cortical neurons is 78%.
Consider `CN(C)CCn1ccc2ccc(OCc3ccccc3)cc21` [Example 10, 2-(6-(benzyloxy)-1H-indol-1-yl)-N,N-dimethylethan-1-amine], for which, in the experiment with cortical neurons, the Emax at 10 µM is 65%.
As to `CN(C)CCn1ccc2cccc(OCc3ccccc3)c21` [Example 11, 2-(7-(benzyloxy)-1H-indol-1-yl)-N,N-dimethylethan-1-amine], the Emax at 10 µM in the experiment on cortical neurons was 131%.
With `CN(C)CCn1ccc2c(F)cccc21` [Example 12, 2-(4-fluoro-1H-indol-1-yl)-N,N-dimethylethan-1-amine], the Emax at 10 µM in the experiment on cortical neurons is 37%.
On to `CN(C)CCn1ccc2cc(F)ccc21` [Example 13, 2-(5-fluoro-1H-indol-1-yl)-N,N-dimethylethan-1-amine], for which, in the experiment with cortical neurons, the Emax at 10 µM came to 75%; the “dendritic arbor complexity / neuronal growth (Nmax of Sholl plots)” value is “performed identically to 28 and 29”.
On to `CN(C)CCn1ccc2cccc(F)c21` [Example 15, 2-(7-fluoro-1H-indol-1-yl)-N,N-dimethylethan-1-amine], for which the Emax at 10 µM in the experiment with cortical neurons amounted to 85%.
Turning to `CN(C)CCn1ccc2cc(F)c(F)cc21` [Example 17, 2-(5,6-difluoro-1H-indol-1-yl)-N,N-dimethylethan-1-amine], in the experiment on cortical neurons, the Emax at 10 µM amounted to 84%.
For the compound `CN(C)CCn1ccc2c(F)cc(F)cc21` [Example 18, 2-(4,6-difluoro-1H-indol-1-yl)-N,N-dimethylethan-1-amine], the Emax at 10 µM with cortical neurons was found to be 62%.
As to `CN(C)CCn1cc(C(=O)C(=O)N(C)C)c2ccccc21` [Example 21, 2-(1-(2-(dimethylamino)ethyl)-1H-indol-3-yl)-N,N-dimethyl-2-oxoacetamide], in the experiment on cortical neurons, the Emax at 10 µM is 72% and the “dendritic arbor complexity / neuronal growth (Nmax of Sholl plots)” value is “well tolerated”.
In the case of `CN(C)CCn1cccc1` [Example 23, N,N-dimethyl-2-(1H-pyrrol-1-yl)ethan-1-amine], in the experiment with cortical neurons, the Emax at 10 µM was 64% and the “dendritic arbor complexity / neuronal growth (Nmax of Sholl plots)” value is reported as “minimal effect on the ability of these molecules to promote neuronal growth”.
With `CC(C)CCn1ccc2ccccc21` [Example 25, 1-isopentyl-1H-indole], in the experiment on cortical neurons, the Emax at 10 µM turned out to be 17% and the “dendritic arbor complexity / neuronal growth (Nmax of Sholl plots)” value was “did not promote dendritogenesis”.
As to `CN(C)CCc1cn(C)c2ccccc12` [Example 27, N,N-dimethyl-2-(1-methyl-1H-indol-3-yl)ethan-1-amine, reference compound], in the experiment on cortical neurons, the Emax at 10 µM stood at 73% and the “dendritic arbor complexity / neuronal growth (Nmax of Sholl plots)” value is reported as “increase dendritic arbor complexity to a comparable extent as DMT (1); also recorded: increased dendritic arbor complexity to a comparable extent as 1”.
For `CN(C)CCc1c[nH]c2cc(F)ccc12` [Example 29, 2-(6-fluoro-1H-indol-3-yl)-N,N-dimethylethan-1-amine, reference compound], the Emax at 10 µM with cortical neurons is 81%.
For `COc1ccc2c(ccn2C[C@@H](C)N(C)C)c1` [Example 32, (R)-1-(5-methoxy-1H-indol-1-yl)-N,N-dimethylpropan-2-amine], the Emax at 10 µM in the experiment on cortical neurons came out at 88%.
As to `C[C@H](Cn1ccc2cc(F)ccc21)N(C)C` [Example 33, (R)-1-(5-fluoro-1H-indol-1-yl)-N,N-dimethylpropan-2-amine], the Emax at 10 µM in the experiment with cortical neurons is 65%.
In the case of `O=C(c1ccc(F)cc1)C1CCN(CCn2c(=O)[nH]c3ccccc3c2=O)CC1` [Ketanserin, reference compound], in the experiment on 5HT2A sensor [1], the “activation … at 10 μM” value is “do not activate the 5HT2A sensor assay in agonist mode”. Moreover, the “competition with 5HT binding to 5HT2A” value with 5HT2A sensor [2] is “compete with 5HT binding to 5HT2A”.
Regarding `CNC(C)Cc1ccc2c(c1)OCO2` [L-MDMA, reference compound], the “activation … at 10 μM” value in the experiment with 5HT2A sensor [1] is given as “do not activate the 5HT2A sensor assay in agonist mode”.
On to `CCN(CC)C(=O)[C@@H]1C=C2c3cccc4[nH]cc(c34)C[C@H]2N(C)C1` [LSD, lysergic acid diethylamide, reference compound], for which the “activation … at 10 μM” value in the experiment on 5HT2A sensor [1] is on record as “activate the 5HT2A sensor assay in agonist mode”. Moreover, the “activation of 5HT2A sensor assay in agonist mode (dose response)” value in the experiment with 5HT2A sensor [1] (dose response (FIG. 10)) is given as “activate”.
In the case of `CN[C@H](C)Cc1ccc2c(c1)OCO2` [R-MDMA, reference compound], the “activation … at 10 μM” value in the experiment on 5HT2A sensor [1] is recorded as “do not activate the 5HT2A sensor assay in agonist mode”.
